Where two headings read alike, the source gives them in different places.
Legend:
male Sprague-Dawley rats [1] = assay: Thermal hyperalgesia, paw withdrawal latency (PWL) to radiant heat; assay type: in vivo, rat
male Sprague-Dawley rats [2] = test system: male Sprague-Dawley rats
[3] = test system: transgenic mice co-expressing VGAT with Channelrhodopsin-2; assay: SI theta power (LFP) after intradermal capsaicin in VGAT-ChR2 mice; assay type: in vivo, mouse; conditions: 15-20 minutes after intradermal injection of capsaicin in the hindpaw, n=5 mice
Text: Thalamic bursts are triggered predominantly by GABAergic drive from the reticular thalamic nucleus (TRN), a thin layer overlaying the thalamus that receives strong input from limbic cortical areas. To selectively induce thalamic bursts, TRNs were optically stimulated in awake, unrestrained transgenic mice co-expressing the vesicular GABA transporter (VGAT) with Channelrhodopsin-2 (ChR2). In these mice, ChR2 expression in the thalamus is restricted to the TRN. Age-matched wild-type (C57 Bl\6J) non-ChR2 expressing mice were also used to control for non-specific optical stimulation effects. The naïve state refers to normal conditions prior to induction of the pain models. A custom-made multi-channel system was used to record extracellularly from putative single-units in ventral posterolateral (VPL) thalamus and local field potential (LFP) in the primary somatosensory cortex (S1) hindlimb area (FIGS. 9A-9B). For a description of the FlexDrive system assembly see www.open-ephys.org/[…]. […] FlexDrives were fixed to the skull using C&B-METABOND® Quick! Adhesive (Parkell). After 3 days postoperatively, tetrodes were lowered incrementally ( 500 μm over 5-7 days) until auditory confirmation of typical neuronal responses as expected in VPL and SI (e.g., increased multiunit firing) evoked by light brushing of the left hindpaw. Tetrode positions were also corroborated by stereotaxic coordinates. […]

VPL neurons = assay: Spontaneous burst firing of VPL thalamic neurons after capsaicin; assay type: in vivo, mouse; conditions: after capsaicin injection, n=17 units, 5 mice
Text: A custom-made multi-channel system was used to record extracellularly from putative single-units in ventral posterolateral (VPL) thalamus and local field potential (LFP) in the primary somatosensory cortex (S1) hindlimb area (FIGS. 9A-9B). For a description of the FlexDrive system assembly see www.open-ephys.org/[…]. […] FlexDrives were fixed to the skull using C&B-METABOND® Quick! Adhesive (Parkell). After 3 days postoperatively, tetrodes were lowered incrementally ( 500 μm over 5-7 days) until auditory confirmation of typical neuronal responses as expected in VPL and SI (e.g., increased multiunit firing) evoked by light brushing of the left hindpaw. Tetrode positions were also corroborated by stereotaxic coordinates. […] Chronic implants were stable over several weeks, allowing longitudinal analysis of neuronal activity with behavioral testing of mechanical sensitivity. […] Sorted spikes were then screened visually and inspected for false-positive or overlapping unitary assignments. Only one electrode per tetrode was used for spike sorting to minimize redundant assignments from the same unit. […] Moreover, isolation of putative unitary spikes also met the criterion of inter-spike interval (ISI)>2 ms (refractory period). […]

male Sprague-Dawley rats [4] = assay: Cortical EEG coherence (3-30 Hz) between S1 and PFC electrodes; assay type: in vivo, rat
[5] = test system: transgenic mice co-expressing VGAT with Channelrhodopsin-2; assay: Mechanical paw withdrawal threshold to von Frey filaments after capsaicin; conditions: within 15-20 minutes after capsaicin injection, n=7 mice
Method: For acute and chronic pain models, capsaicin (0.1%, 10 μl, intradermal) was injected into the plantar aspect of the left hindpaw under sedation (1.5% isoflurane <2 min) to prevent stress due to restraining the hindpaw.
Mechanical sensitivity of the hindpaw was assessed by measuring the threshold of withdrawal in response to the application of calibrated von Frey filaments of different bending forces to the plantar aspect of the hindpaw according to the ‘up-down’ method, whereby filaments of different bending forces were pressed against the paw until buckling for a maximum of 3 seconds or a withdrawal reflex.

[6] = rats with capsaicin, ibuprofen 30 mg/kg i.p.
[7] = rats with capsaicin, ibuprofen 30 mg/kg i.p. concomitantly with capsaicin, EEG 30 min after
[8] = 30 min after capsaicin, n=8 rats
[9] = rats with CCI, d14, 30 min after i.p. pregabalin
[10] = rats with CFA, d2, before / 30 min after i.p. pregabalin

## CC(C)Cc1ccc(C(C)C(=O)O)cc1 (stereo not shown) [ibuprofen]
Male Sprague-Dawley rats [1]; [6]
  PWL (FIG. 4B): 114±10
Male Sprague-Dawley rats [2]; [7]
  PFC EEG mean power: 117±18
  iS1 EEG mean power: 143±35

## COc1cc(CNC(=O)CCCC/C=C/C(C)C)ccc1O [capsaicin]
[3]
  SI power in the theta band at 3.8-6.2 Hz: 8.15×10^−2±0.13×10^−2 mV^2
VPL neurons
  rate of spontaneous burst firing in VPL neurons: 0.64±0.11
Male Sprague-Dawley rats [1]; [8]
  paw withdrawal latency (PWL): 6.00 ± 0.24 s
Male Sprague-Dawley rats [1]; 24 hour after capsaicin
  paw withdrawal latency (PWL): 9.15 ± 0.26 s
Male Sprague-Dawley rats [1]; [6]
  PWL (FIG. 4B): 64±3
Male Sprague-Dawley rats [4]; rats with capsaicin or CFA
  cS1-iS1 coherence: did not significantly effect
  iS1-PFC coherence: did not significantly effect
Male Sprague-Dawley rats [4]; rats with capsaicin, n=7 rats
  coherence between cS1 and PFC (mean 3-30 Hz coherence): 0.61±0.05
Male Sprague-Dawley rats [2]; [8]
  PFC EEG mean power between 3 Hz to 30 Hz: 0.67±0.06 mV^2×10^−5
  cS1 EEG mean power between 3 Hz to 30 Hz: 1.05±0.11 mV^2×10^−5
  iS1 EEG mean power between 3 Hz to 30 Hz: 1.05±0.8 mV^2×10^−5
Male Sprague-Dawley rats [2]; 24 hours after capsaicin
  PFC EEG mean power between 3 Hz to 30 Hz: 0.65±0.07 mV^2×10^−5
  cS1 EEG mean power between 3 Hz to 30 Hz: 0.89±0.12 mV^2×10^−5
  iS1 EEG mean power between 3 Hz to 30 Hz: 0.90±0.18 mV^2×10^−5
Male Sprague-Dawley rats [2]; [7]
  PFC EEG mean power: 123±16
  cS1 EEG mean power (FIG. 4A): 128±17
  iS1 EEG mean power: 124±14
[5]
  paw withdrawal threshold (von Frey): 1.00 ± 0.37 g

## Cc1cccc(C)c1OCC(C)N (stereo not shown) [mexiletine]
Male Sprague-Dawley rats [1]; rats with CCI, after mexiletine 10 mg/kg i.p.
  PWL (FIG. 4B): 119±17
Male Sprague-Dawley rats [4]; rats with CCI d16, after mexiletine, n=5 rats
  coherence between cS1 and PFC (mean 3-30 Hz coherence): 0.50±0.10
Male Sprague-Dawley rats [2]; rat, in vivo
  PFC EEG mean power: 113±6
  adverse EEG signs (diffuse or paroxysmal slow activity associated with drowsiness): did not manifest adverse EEG signs
  cS1 EEG mean power (FIG. 4A): 134±18
  iS1 EEG mean power: 13926

## CC(C)C[C@H](CN)CC(=O)O [pregabalin]
Male Sprague-Dawley rats [1]; rats with CCI, after pregabalin
  PWL (FIG. 4B): 119±5
Male Sprague-Dawley rats [1]; rats with CFA, before / after pregabalin
  PWL (FIG. 4B): 132±17
Male Sprague-Dawley rats [4]; rats with CCI d14, after pregabalin, n=5 rats
  coherence between cS1 and PFC (mean 3-30 Hz coherence): 0.61±0.03
Male Sprague-Dawley rats [2]; rat, in vivo
  adverse EEG signs (diffuse or paroxysmal slow activity associated with drowsiness): did not manifest adverse EEG signs
Male Sprague-Dawley rats [2]; [9]
  PFC EEG mean power: 133±14
  cS1 EEG mean power (FIG. 4A): 87±12
  iS1 EEG mean power: 151±20
Male Sprague-Dawley rats [2]; [10]
  PFC EEG mean power: 138±20
  cS1 EEG mean power (FIG. 4A): 209±35
  iS1 EEG mean power: 133±9
